# Literature values as cited in patent US20100081719A1 (priority 2006, published 2010).
# Legend:
# patients with FMS = conditions: open-label; 11 completing patients; cited from earlier work
# [1] = system: subjects suffering from fibromyalgia syndrome; conditions: cited from earlier work; for Subjects with significant clinical improvement: after one month; for Difference from placebo: at three months
Compound,Completing patients with a positive response (50% or greater improvement in two different measurements of overall pain) (patients with FMS),Completing patients with insomnia requiring adjunctive medical therapy (patients with FMS),Subjects with significant clinical improvement [1] [%],Difference from placebo [1]
COc1ccc(C(CN(C)C)C2(O)CCCCC2)cc1 (stereo not drawn) [venlafaxine],Six of 11,3 of 11,,
CN(C)CCC=C1c2ccccc2CCc2ccccc21 [amitriptyline],,,21,no difference
CN(C)CCC=C1c2ccccc2C=Cc2ccccc21 [cyclobenzaprine],,,12,no difference
